IC50 data for 4 compounds are collected here from PMC7277860, “Viridistratins A−C, Antimicrobial and Cytotoxic Benzo[j]fluoranthenes from Stromata of Annulohypoxylon viridistratum (Hypoxylaceae, Ascomycota)” (Biomolecules, 2020).

Molecules are shown by their SMILES.

The nature of the data set: Cytotoxicity assay (MTT). It counts as cell-based, human. The conditions noted are these: for IC50: 5 days. As for the experimental part: Compounds 1−5 were dissolved as described in the previous section. The cytotoxicity assay was initially performed against the cell lines L929 (mouse fibroblasts), as well as KB 3.1 (human papillomavirus-related endocervical adenocarcinoma), as described previously. A detailed protocol, as well as sources of the cell lines, is given in the Supporting Information.
After incubating the cell lines with a serial dilution of the test compounds (final range: 37 to 0.6 × 10^−3 µg/mL) for five days, the cells were dyed using 3-(4,5-dimethyl-2-thiazolyl)-2,5-diphenyl-2H-tetrazolium bromide (MTT), which is only converted to its purple formazan derivative by living cells. Then, the intensity of the purple derivative in relation to cells without additive (set to 100% viability) for each concentration of a test compound was quantified. For this, the absorption at 595 nm was measured using a microplate reader to calculate the percentage of cell viability. From this, the half-maximum inhibitory concentration (IC50, in µM) was calculated.
If an inhibition of cell viability with an IC50 < 50 µM was observed, further cell lines were subjected to the test compounds: PC-3 (human prostate adenocarcinoma), SK-OV-3 (human ovary adenocarcinoma), MCF-7 (human breast adenocarcinoma), A431 (human squamous carcinoma) and A549 (human lung carcinoma).
Protocol: Cytotoxicity Assay
The ass ay w as co nducted i n 9 6-well flat-bottom mi crotiter plates using the parameters summarised i n Tabl e S 2 and as described in [S2].
Cell lines L929 and KB 3.1 were incubated at 37 °C under 10 % CO2 in Gibco™ DMEM medium (Thermo Fisher Scientific, Waltham, MA, USA) supplemented with 10 % FBS. A microtiter plate was filled with 120 µL of this suspension (50,000/mL) in each well.
Seperately, another microtiter plate was filled with 100 µL of growth medium in each well. Then, 50 µL of the test compound sol utions (1 mg/mL) were given to wells of the first column in two replicates (one compound per row). C ell s wi thout addi ti ves, Me O H, and MeOH: DMSO 9+1 were used as negative controls. Starting from the first column, 50 µL of the solutions were gradually transferred to the ne xt col umn, the conte nts thoroughl y mi xed, and 50 µ L transferred to the following column. This created a serial dilution of the test compounds r anging from 333 µg/mL to 1.9 ×10−3 µg/mL. The remai ni ng 50 µL after column twelve were discarded. From this microtiter plate, 60 µL of the sol utions from 111 µg/ mL to 1.9×10−3 µg/mL were given to the first plate containing 120 µL of the cel l suspens i ons (i.e. the hi ghest concentrati on 333 µg/mL was not used). T his resulted i n fi nal compound concent rati ons rangi ng from […]
After 5 days of incubation under the aforeme ntioned i ncubati on condi ti ons, the half maximum inhibitory concentrati ons (IC 50) were determined using a colorimetric tetrazolium dye MTT assay [S3].
For this, 20 µL of a 5 mg/mL solution of 3-( 4 ,5 -dimethyl-2-thi azo l yl)-2 ,5 -di phenyl -2H-tetrazolium bromide (MTT) w ere added to each well and incubated for two hours at 37 °C. Then, the microtiter plate was centrifuged (3,000 r p m, 5 mi n) and the supernat ant remo ved by ho l di ng the pl ate upsi de-do wn and gentle shaking. Afterwards, the wells were washed using 100 µL of phosph ate buffered saline (PBS).
The plate was again centrifuged and the supernatant removed as described before. Then, 100 µL of an isopropanol:HCl solution (1L i sopropanol+4 mL HCl 37 % w/v) were added to the wells. After i ncubati ng fo r 10 mi n at ambi ent te mperature, the a bso r pti o n of the well s at 595 nm was measured wi th an I nfi ni te ® 200 Pro microplate reader (TECAN, Männedorf, Schweiz).
The absorption values of the cells without additives were averaged and set to 100 % cell viability.
Then, t he me ans of absorption of the two compound replicates were set in relation to the blank media.
These percentage values were plotted a gainst the concentration range (37 µg/mL to 0.6×10 −3 µg/mL). […]

Where [1] appears, read: A431 human squamous carcinoma cells, A431 human squamous AC.
The mark [2] stands for this setting: A549 human lung carcinoma cells, A549 human lung carcinoma.
[3] abbreviates: MCF-7 human breast adenocarcinoma cells, MCF-7 human breast AC.
The mark [4] stands for this setting: PC-3 human prostate adenocarcinoma cells, PC-3 human prostate AC.
The mark [5] stands for this setting: SK-OV-3 human ovary adenocarcinoma cells, SK-OV-3 human ovary AC.

By IC50 is commonly meant the point on the concentration scale where inhibition reaches its midpoint. For `Oc1cccc2c3c(ccc12)-c1ccc(O)c2c(O)ccc-3c12` [Compound 1, viridistratin A], inhibition under setting [1] was half-maximal at 8.7 µM (IC50 at 5 days); the IC50 at 5 days under setting [2] was 20 µM; the half-maximal inhibitory concentration (IC50) at 5 days under setting [3] turned out to be 9.7 µM; inhibition under setting [4] was half-maximal at 23.7 µM (IC50 at 5 days); the midpoint of inhibition under setting [5], the IC50 at 5 days, lay at 56.7 µM.
The compound `COc1cccc2c3c(ccc12)-c1ccc(O)c2c(O)ccc-3c12` [Compound 2, viridistratin B] yielded an IC50 at 5 days under setting [1] of 1.1 µM; an IC50 at 5 days under setting [2] of 1.4 µM; an IC50 at 5 days under setting [3] of 5.1 µM; an IC50 at 5 days under setting [4] of 9.9 µM; a 50% inhibitory concentration (IC50) at 5 days under setting [5] of 7.3 µM.
With `O=C1C[C@H]2C(=C3CCC(=O)c4c(O)ccc2c43)c2cccc(O)c21` [Compound 4, truncatone A], the 50% inhibitory concentration (IC50) was found to be 5.7 µM (A431 human squamous AC); 17 µM (A549 human lung carcinoma); 8.8 µM (MCF-7 human breast AC); 44 µM (PC-3 human prostate AC); 66 µM (SK-OV-3 human ovary AC).
In the case of `O=C1CCC(=O)c2c1c(O)cc1c2-c2ccc(O)c3c(O)ccc-1c23` [Compound 5, truncatone C], the IC50 at 5 days came out at 16.3 µM under setting [1]; 27.1 µM under setting [2]; 7.8 µM under setting [3]; 25.6 µM under setting [4]; 33.1 µM under setting [5].
